Data on 17 molecules can be found in US9562035B2, “Benzamide derivative useful as FASN inhibitors for the treatment of cancer” (Janssen Pharmaceutica NV, priority 2013, dated 2017).

For assay [1], the target named is T1, hFASN enzyme (full length) (Homo sapiens, UniProt P49327).
T1 construct: 10 μL hFASN enzyme (full length, 300 ng, purified in house); made in house
Nature of the assay: Fatty Acid Synthase (FASN) Inhibition Scintillation Proximity Assay. Format: biochemical. The following applies: for pIC50: mean where tested more than once, ~ = standard error of pIC50 larger than 0.5; for inhibition at 10 µM: read-out: FASN % Effect @1E−05M. Summed up: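 Eight compound concentrations (0.01–30 μM) tested in pH 7.5 phosphate buffer with DTT; human full-length enzyme converted [3H]-acetyl-CoA plus malonyl-CoA, with NADPH, over 60 min at room temperature. Hydrophobic [3H]-palmitate detected by bead proximity scintillation imaging; control-normalised data fitted for IC50/pIC50.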
(In a scintillation proximity assay essentially only radioactivity close to the scintillant gives light.)

The target of assay [2] is T2, FASN Keto-reductase Domain (Homo sapiens, UniProt P49327).
T2 construct: 10 μL hFASN enzyme (full length, 300 ng, purified in house) and 360 μM NADPH; made in house
Nature of the assay: Fatty Acid Synthase Keto-Reductase Domain (FASN KR) Inhibition. Type of assay: biochemical. Conditions: mean where tested more than once; read-out: FASN K-R Domain pIC50 (converted). The method in brief: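 Keto-reductase activity followed as NADPH consumption (A340 drop between 0 and 20 min, room temperature) using in-house full-length hFASN, 360 μM NADPH and ethyl acetoacetate substrate (180 mM stock), pH 7.5 phosphate buffer.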

A further assay relates to A2780 ovarian cells. Kind of assay: A2780 Ovarian Cell Proliferation Assay in Lipid Reduced Medium, with Palmitate (control). Format: cell-based. Conditions: Homo sapiens. The method in brief:
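Read-out was MTT absorbance at 544 nm after 96 h at 37 °C. Cells grown overnight in RPMI1640/10% FCS were moved to 10% lipid-reduced serum with compound plus palmitate (final 25 μM, 0.2% fatty-acid-free BSA, 0.2% DMSO). IC50 came from least-squares curve fitting, expressed as −log(IC50).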

[3] abbreviates: A2780, lipid reduced medium, 25 μM palmitate, 96 h, MTT, read-out: Proliferation A2780 with Palmitate pIC50 (converted).

pIC50: −log10 of the molar value. Like-named read-outs stand apart in the source and are kept apart here.

T1 sequence (P49327 whole entry): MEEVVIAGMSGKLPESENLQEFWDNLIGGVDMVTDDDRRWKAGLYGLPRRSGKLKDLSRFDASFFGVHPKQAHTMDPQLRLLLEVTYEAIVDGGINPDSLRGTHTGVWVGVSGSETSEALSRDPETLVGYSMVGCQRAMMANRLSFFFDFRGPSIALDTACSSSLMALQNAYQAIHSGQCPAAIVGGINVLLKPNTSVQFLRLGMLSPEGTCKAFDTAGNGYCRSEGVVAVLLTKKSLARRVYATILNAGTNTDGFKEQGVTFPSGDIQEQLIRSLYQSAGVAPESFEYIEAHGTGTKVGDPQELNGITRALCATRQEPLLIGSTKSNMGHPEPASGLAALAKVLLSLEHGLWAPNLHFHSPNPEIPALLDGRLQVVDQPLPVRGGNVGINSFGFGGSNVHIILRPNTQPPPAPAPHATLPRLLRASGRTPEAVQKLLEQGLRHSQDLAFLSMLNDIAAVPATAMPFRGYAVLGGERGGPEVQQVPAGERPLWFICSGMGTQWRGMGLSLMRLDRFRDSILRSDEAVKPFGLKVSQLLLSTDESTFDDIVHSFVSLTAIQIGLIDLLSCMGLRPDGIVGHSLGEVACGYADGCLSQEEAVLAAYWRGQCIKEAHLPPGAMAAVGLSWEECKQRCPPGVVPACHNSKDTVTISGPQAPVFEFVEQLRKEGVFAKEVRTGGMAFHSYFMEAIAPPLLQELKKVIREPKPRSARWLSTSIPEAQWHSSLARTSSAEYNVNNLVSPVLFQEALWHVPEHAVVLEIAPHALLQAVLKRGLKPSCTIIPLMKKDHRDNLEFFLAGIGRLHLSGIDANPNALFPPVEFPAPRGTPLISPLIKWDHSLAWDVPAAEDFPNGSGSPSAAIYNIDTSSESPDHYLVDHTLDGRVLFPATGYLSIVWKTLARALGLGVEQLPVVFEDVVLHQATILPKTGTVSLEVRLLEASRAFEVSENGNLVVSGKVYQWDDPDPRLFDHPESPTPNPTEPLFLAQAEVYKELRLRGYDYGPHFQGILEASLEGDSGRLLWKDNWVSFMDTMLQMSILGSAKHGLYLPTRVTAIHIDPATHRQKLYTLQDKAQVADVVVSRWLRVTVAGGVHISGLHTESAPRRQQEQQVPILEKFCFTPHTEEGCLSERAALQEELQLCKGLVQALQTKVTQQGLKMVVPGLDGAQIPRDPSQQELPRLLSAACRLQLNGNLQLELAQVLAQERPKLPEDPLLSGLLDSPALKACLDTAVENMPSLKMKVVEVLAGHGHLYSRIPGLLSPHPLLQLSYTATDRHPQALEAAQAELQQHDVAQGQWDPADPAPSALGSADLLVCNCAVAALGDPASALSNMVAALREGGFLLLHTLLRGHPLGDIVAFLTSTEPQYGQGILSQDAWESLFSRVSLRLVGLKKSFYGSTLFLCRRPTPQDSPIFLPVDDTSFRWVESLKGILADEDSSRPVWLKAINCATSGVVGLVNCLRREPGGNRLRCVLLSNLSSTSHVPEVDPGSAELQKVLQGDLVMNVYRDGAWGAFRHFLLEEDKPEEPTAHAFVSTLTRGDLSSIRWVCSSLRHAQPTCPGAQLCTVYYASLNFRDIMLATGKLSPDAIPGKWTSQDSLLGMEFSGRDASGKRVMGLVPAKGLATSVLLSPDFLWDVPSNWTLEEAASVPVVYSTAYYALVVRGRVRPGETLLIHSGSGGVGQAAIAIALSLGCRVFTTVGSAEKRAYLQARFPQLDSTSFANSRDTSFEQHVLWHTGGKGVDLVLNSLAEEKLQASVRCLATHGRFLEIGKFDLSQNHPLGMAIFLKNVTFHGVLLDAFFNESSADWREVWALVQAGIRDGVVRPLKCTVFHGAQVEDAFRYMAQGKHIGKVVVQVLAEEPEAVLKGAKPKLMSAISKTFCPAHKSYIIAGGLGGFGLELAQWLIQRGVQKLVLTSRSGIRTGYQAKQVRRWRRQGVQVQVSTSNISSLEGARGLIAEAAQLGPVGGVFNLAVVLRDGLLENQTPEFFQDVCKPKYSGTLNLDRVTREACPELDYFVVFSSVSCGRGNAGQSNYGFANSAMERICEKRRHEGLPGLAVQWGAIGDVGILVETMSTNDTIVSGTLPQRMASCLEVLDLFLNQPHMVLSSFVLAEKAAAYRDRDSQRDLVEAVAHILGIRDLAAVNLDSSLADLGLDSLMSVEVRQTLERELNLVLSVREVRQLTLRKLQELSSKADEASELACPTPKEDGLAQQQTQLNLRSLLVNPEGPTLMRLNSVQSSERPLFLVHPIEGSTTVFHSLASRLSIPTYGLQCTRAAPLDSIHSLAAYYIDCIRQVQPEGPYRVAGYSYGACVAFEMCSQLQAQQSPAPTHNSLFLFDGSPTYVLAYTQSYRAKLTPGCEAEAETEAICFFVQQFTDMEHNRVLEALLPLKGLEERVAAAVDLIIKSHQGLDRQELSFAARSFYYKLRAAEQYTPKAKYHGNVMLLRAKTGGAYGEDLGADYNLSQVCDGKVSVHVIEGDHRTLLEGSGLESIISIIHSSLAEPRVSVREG
T2 sequence (P49327 whole entry, the tested form may be a part): as the sequence (P49327 whole entry) above

The pIC50 is the negative decadic logarithm of the IC50, by convention in mol/L. Higher therefore signals a low IC50. In the case of `Cc1ccc(C(=O)N2CC(c3ccc(-c4cnn(C)c4)cc3)C2)cc1NC(=O)c1ccc(N2CCOCC2)nc1` [Compound #66, N-(2-methyl-5-(3-(4-(1-methyl-1H-pyrazol-4-yl)phenyl)azetidine-1-carbonyl)phenyl)-6-morpholinonicotinamide], in assay [1], the negative-log IC50 (pIC50) was 8.02 and the inhibition at 10 µM turned out to be 118%. The IC50 in assay [2] was 31.6 nM. The IC50 in the assay on A2780 ovarian cells (setting [3]) was more than 15.1 µM.

Take `CC(C)Nc1ccc(C(=O)Nc2cc(C(=O)N3CCC(c4ccc(-c5cnn(C)c5)cc4)CC3)ccc2N(C)C2CC2)cn1` [Compound 287, N-(2-(cyclopropyl(methyl)amino)-5-(4-(4-(1-methyl-1H-pyrazol-4-yl)phenyl)piperidine-1-carbonyl)phenyl)-6-(isopropylamino)nicotinamide]: in assay [1], the pIC50 is 7.00 and the inhibition at 10 µM was found to be 98%. In assay [2], the IC50 is 204 nM. Also, the IC50 in the assay on A2780 ovarian cells (setting [3]) was more than 10 µM.

As to `CN(C)c1ccc(C(=O)N2CCC(c3ccc(-c4cnn(C)c4)cc3)CC2)cc1NC(=O)c1ccc(Cl)nc1` [Compound 275, 6-chloro-N-(2-(dimethylamino)-5-(4-(4-(1-methyl-1H-pyrazol-4-yl)phenyl)piperidine-1-carbonyl)phenyl)nicotinamide], in assay [1], the pIC50 was 7.25 and the inhibition at 10 µM came out at 99%. In assay [2], the IC50 was 126 nM. Moreover, in the assay with A2780 ovarian cells (setting [3]), the IC50 was more than 10 µM.

The molecule `CN(c1ccc(C(=O)N2CCC(c3ccc(-c4cnn(C)c4)cc3)CC2)cc1NC(=O)C1CC1)C1CC1` [Compound 288, N-(2-(cyclopropyl(methyl)amino)-5-(4-(4-(1-methyl-1H-pyrazol-4-yl)phenyl)piperidine-1-carbonyl)phenyl)cyclopropanecarboxamide] gave a pIC50 in assay [1] of 6.06. The inhibition at 10 µM in assay [1] worked out at 88%. Also, the IC50 is 2510 nM in assay [2] and more than 10 µM in the assay with A2780 ovarian cells (setting [3]).

In turn, `CC(C)Nc1ccc(C(=O)Nc2cc(C(=O)N3CCC(c4ccc(-c5cnn(C)c5)cc4)CC3)ccc2NC2CC2)cn1` [Compound 283, N-(2-(cyclopropylamino)-5-(4-(4-(1-methyl-1H-pyrazol-4-yl)phenyl)piperidine-1-carbonyl)phenyl)-6-(isopropylamino)nicotinamide] had a negative logarithm of the IC50 (pIC50) in assay [1] of 6.96. The inhibition at 10 µM in assay [1] amounted to 98%. The IC50 in assay [2] was 631 nM; in the assay with A2780 ovarian cells (setting [3]), more than 10 µM.

For `Cc1ccc(C(=O)N2CC(c3ccc(-c4cnn(C)c4)cc3)C2)cc1NC(=O)c1ccc(N(C)C(C)C)nc1` [Compound #78, 6-(isopropyl(methyl)amino)-N-(2-methyl-5-(3-(4-(1-methyl-1H-pyrazol-4-yl)phenyl)azetidine-1-carbonyl)phenyl)nicotinamide], in assay [1], the pIC50 is approximately 7.99 and the inhibition at 10 µM amounted to 120%. The IC50 in assay [2] is 25.1 nM. Moreover, in the assay with A2780 ovarian cells (setting [3]), the IC50 was approximately 15.1 µM.

Take `CC(C)Nc1ccc(C(=O)Nc2cc(C(=O)N3CCC(c4ccc(-c5cnn(C)c5)cc4)CC3)ccc2N(C)C(C)C)cn1` [Compound 276, N-(2-(isopropyl(methyl)amino)-5-(4-(4-(1-methyl-1H-pyrazol-4-yl)phenyl)piperidine-1-carbonyl)phenyl)-6-(isopropylamino)nicotinamide]: the pIC50 in assay [1] was 6.43. Also, the inhibition at 10 µM in assay [1] is 93%. Further, the IC50 in assay [2] is 479 nM; in the assay on A2780 ovarian cells (setting [3]), more than 10 µM.

In the case of `CC(C)N(C)c1ccc(C(=O)N2CCC(c3ccc(-c4cnn(C)c4)cc3)CC2)cc1NC(=O)c1ccc(Cl)nc1` [Compound 274, 6-chloro-N-(2-(isopropyl(methyl)amino)-5-(4-(4-(1-methyl-1H-pyrazol-4-yl)phenyl)piperidine-1-carbonyl)phenyl)nicotinamide], in assay [1], the pIC50 is 6.36 and the inhibition at 10 µM turned out to be 88%. Besides, the IC50 in assay [2] was approximately 2190 nM. Further, the IC50 with A2780 ovarian cells (setting [3]) is more than 10 µM.

For `CC(C)Nc1ccc(C(=O)Nc2cc(C(=O)N3CCC(c4ccc(-c5cnn(C)c5)cc4)CC3)ccc2NC(C)C)cn1` [Compound 284, 6-(isopropylamino)-N-(2-(isopropylamino)-5-(4-(4-(1-methyl-1H-pyrazol-4-yl)phenyl)piperidine-1-carbonyl)phenyl)nicotinamide], in assay [1], the pIC50 was 6.90 and the inhibition at 10 µM came out at 95%. The IC50 in assay [2] is 407 nM. In addition, the IC50 in the assay on A2780 ovarian cells (setting [3]) was more than 10 µM.

For the molecule `COCCN(C)c1ccc(C(=O)N2CCC(c3ccc(-c4cnn(C)c4)cc3)CC2)cc1NC(=O)C1CC1` [Compound 278, N-(2-((2-methoxyethyl)(methyl)amino)-5-(4-(4-(1-methyl-1H-pyrazol-4-yl)phenyl)piperidine-1-carbonyl)phenyl)cyclopropanecarboxamide], in assay [1], the pIC50 is 6.09 and the inhibition at 10 µM amounted to 85%. Besides, the IC50 in assay [2] was 1100 nM. In addition, in the assay on A2780 ovarian cells (setting [3]), the IC50 was more than 10 µM.

Turning to `CC(C)Nc1ccc(C(=O)Nc2cc(C(=O)N3CCC(c4ccc(-c5cnn(C)c5)cc4)CC3)ccc2N(C)C)cn1` [Compound 280, N-(2-(dimethylamino)-5-(4-(4-(1-methyl-1H-pyrazol-4-yl)phenyl)piperidine-1-carbonyl)phenyl)-6-(isopropylamino)nicotinamide], in assay [1], the pIC50 was 7.15 and the inhibition at 10 µM came to 99%. Further, the IC50 in assay [2] is 148 nM. The IC50 in the assay with A2780 ovarian cells (setting [3]) is 6.17 µM.

Consider `CNc1ccc(C(=O)N2CCC(c3ccc(-c4cnn(C)c4)cc3)CC2)cc1NC(=O)c1ccc(NC(C)C)nc1` [Compound #279, 6-(isopropylamino)-N-(5-(4-(4-(1-methyl-1H-pyrazol-4-yl)phenyl)piperidine-1-carbonyl)-2-(methylamino)phenyl)nicotinamide], for which, in assay [1], the pIC50 is 7.38 and the inhibition at 10 µM worked out at 98%. The IC50 in assay [2] was 93.3 nM. Moreover, the IC50 in the assay on A2780 ovarian cells (setting [3]) was approximately 10 µM.

Turning to `Cc1ccc(C(=O)N2CCC(c3ccc(-c4cnn(C)c4)cc3)CC2)cc1NC(=O)c1ccc(NC(C)C)nc1` [Compound #32, 6-(isopropylamino)-N-(2-methyl-5-(4-(4-(1-methyl-1H-pyrazol-4-yl)phenyl)piperidine-1-carbonyl)phenyl)nicotinamide], in assay [1], the pIC50 was 7.57 and the inhibition at 10 µM is 104%. The IC50 in assay [2] was 37.2 nM. Further, in the assay on A2780 ovarian cells (A2780, 96 h, read-out: Proliferation A2780 with Palmitate pIC50 (μM) (converted)), the IC50 was 7.24 µM.

For the molecule `CC(C)Nc1ccc(C(=O)Nc2cc(C(=O)N3CCC(c4ccc(-c5cnn(C)c5)cc4)CC3)ccc2N)cn1` [Compound 285, N-(2-amino-5-(4-(4-(1-methyl-1H-pyrazol-4-yl)phenyl)piperidine-1-carbonyl)phenyl)-6-(isopropylamino)nicotinamide], in assay [1], the pIC50 is approximately 6.78 and the inhibition at 10 µM came to 74%. Also, in assay [2], the IC50 is 214 nM. For the same molecule, the IC50 with A2780 ovarian cells (setting [3]) was 3.39 µM.

For the molecule `COCCNc1ccc(C(=O)N2CCC(c3ccc(-c4cnn(C)c4)cc3)CC2)cc1NC(=O)C1CC1` [Compound 286, N-(2-((2-methoxyethyl)amino)-5-(4-(4-(1-methyl-1H-pyrazol-4-yl)phenyl)piperidine-1-carbonyl)phenyl)cyclopropanecarboxamide], in assay [1], the pIC50 was 6.29 and the inhibition at 10 µM stood at 91%. In addition, the IC50 in assay [2] was 851 nM. Further, in the assay on A2780 ovarian cells (setting [3]), the IC50 was more than 10 µM.

Molecule `COCCN(C)c1ccc(C(=O)N2CCC(c3ccc(-c4cnn(C)c4)cc3)CC2)cc1NC(=O)c1ccc(NC(C)C)nc1` [Compound 281, 6-(isopropylamino)-N-(2((2-methoxyethyl)(methyl)amino)-5-(4-(4-(1-methyl-1H-pyrazol-4-yl)phenyl)piperidine-1-carbonyl)phenyl)nicotinamide] showed a pIC50 in assay [1] of 6.34. Moreover, the inhibition at 10 µM in assay [1] is 93%. For the same molecule, the figures for the IC50 (in assay [2]; in the assay with A2780 ovarian cells (setting [3])) were 933 nM and approximately 6.31 µM, respectively.

`COCCNc1ccc(C(=O)N2CCC(c3ccc(-c4cnn(C)c4)cc3)CC2)cc1NC(=O)c1ccc(NC(C)C)nc1` [Compound 282, 6-(isopropylamino)-N-(2-((2-methoxyethyl)amino)-5-(4-(4-(1-methyl-1H-Pyrazol-4-yl)phenyl)piperidine-1-carbonyl)phenyl)nicotinamide]: in assay [1], the pIC50 was 7.15 and the inhibition at 10 µM is 99%. The IC50 in assay [2] is 457 nM. The IC50 in the assay with A2780 ovarian cells (setting [3]) is more than 10 µM.
